According to PMC11951083, “Highly Specific Miniaturized Fluorescent Monoacylglycerol Lipase Probes Enable Translational Research” (Journal of the American Chemical Society, 2025):
Values belong to the molecule of their own block, whether it stands above or below them.

Experiments:
mMAGL = target: T1, mMAGL (Mus musculus, UniProt O35678); experiment: Native MS (RapidFire) 2-AG substrate assay, purified mouse MAGL; assay type: biochemical; settings: SI Table 1; read-out: IC50 against purified MAGL ± SEM, Mouse
T1 sequence (O35678 1-303): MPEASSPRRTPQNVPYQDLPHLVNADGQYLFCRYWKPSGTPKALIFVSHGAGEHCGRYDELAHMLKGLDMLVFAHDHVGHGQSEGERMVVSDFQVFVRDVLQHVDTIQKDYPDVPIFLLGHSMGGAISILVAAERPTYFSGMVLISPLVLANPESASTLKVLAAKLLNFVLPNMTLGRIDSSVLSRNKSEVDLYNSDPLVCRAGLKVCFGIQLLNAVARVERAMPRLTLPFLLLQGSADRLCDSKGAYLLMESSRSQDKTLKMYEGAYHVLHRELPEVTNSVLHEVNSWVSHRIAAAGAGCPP
Protocol: (§1) In vitro MAGL Inhibition Assay
(§2) Compounds were profiled for MAGL inhibitory activity by determining the enzymatic activity by following the hydrolysis of the natural substrate 2-arachidonoylglycerol (2-AG), resulting in arachidonic acid, which can be followed by mass spectrometry. The 2-AG assay was carried out in 384 well assay plates (PP, Greiner Cat# 784201) in a total volume of 20 µL. Compound dilutions were made in 100% DMSO (VWR Chemicals 23500.297) in a polypropylene plate in 3-fold dilution steps to give a final concentration range in the assay from 12.5 µM to 0.8 pM. 0.25µL compound dilutions (100% DMSO) were added to 9 µL MAGL in assay buffer (50 mM TRIS (GIBCO, 15567-027), 1 mM EDTA (Fluka, 03690-100 mL), 0.01% (v/v) Tween. After shaking, the plate was incubated for 15 min at RT. To start the reaction, 10 µL 2-arachidonoylglycerol in assay buffer was added. The final concentrations in the assay were 50 pM MAGL and 8 µM 2-arachidonoylglyerol. After shaking and 30 min incubation at RT, the reaction was quenched by the addition of 40µL of ACN containing 4µM of d8-arachidonic acid. The amount of arachidonic acid was traced by an online SPE system (Agilent Rapidfire) coupled to a triple quadrupole mass spectrometer (Agilent 6460). A C18 SPE cartridge (G9205A) was used in an ACN/water liquid setup. The mass spectrometer was operated in negative electrospray mode following the mass transitions 303.1 → 259.1 for arachidonic acid and 311.1 → 267.0 for d8-arachidonic acid. The activity of the compounds was calculated based on the ratio of intensities [arachidonic acid / d8-arachidonic acid]. The lowest IC50 value that can be determined with high accuracy is approximately 0.025 nM.

MAGL = target: T2, MAGL (Homo sapiens, UniProt Q99685); experiment: Native MS (RapidFire) 2-AG substrate assay, purified human MAGL; assay type: biochemical; settings: SI Table 1; read-out: IC50 against purified MAGL ± SEM, Human
T2 sequence (Q99685 1-303): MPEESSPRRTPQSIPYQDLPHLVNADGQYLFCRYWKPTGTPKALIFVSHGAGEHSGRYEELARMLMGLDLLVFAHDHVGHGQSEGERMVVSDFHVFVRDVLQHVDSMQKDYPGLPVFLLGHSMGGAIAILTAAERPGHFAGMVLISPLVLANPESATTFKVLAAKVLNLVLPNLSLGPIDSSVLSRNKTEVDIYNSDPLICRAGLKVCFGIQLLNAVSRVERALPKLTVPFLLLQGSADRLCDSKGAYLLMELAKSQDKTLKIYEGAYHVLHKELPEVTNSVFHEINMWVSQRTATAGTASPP
Protocol: as §1, §2

[1] = target: NanoLuc luciferase MAGL fusion protein; experiment: Cellular MAGL NanoBRET target engagement assay in live HEK293 cells; assay type: cell-based; settings: SI Table 1, live HEK293 cells; read-out: NanoBRET IC50 ± SEM, HEK293
Protocol: This assay was performed as first described before.20
Compounds were profiled by a novel cellular MAGL NanoBRET™ Target Engagement assay, which measures the apparent affinity of test compounds by competitive displacement of a Roche -developed Tracer (WO2021058443, Example 2 121, or probe 4a, respectively), reversibly bound to a NanoLuc ® luciferase MAGL fusion protein in cells.
A HEK293A stable cell line expressing NanoLuc_MAGL was established at Roche and assigned as HEK293A_NanoLuc_MAGL clone #43. A fixed concentration of tracer is added to cells expressing the NanoLuc®_MAGL fusion protein to generate a BRET reporter complex. The introduction of competing compounds results in a dose -dependent decrease in NanoBRET™ energy transfer, which allows quantification of the intracellular affinity of the target protein for the test compound.
HEK293A_NanoLuc_MAGL clone #43 cells were cultured in DMEM (Gibco 31966) with 10% FBS and 800 ug/ml G418. The NanoBRET assay was performed by seeding 5000 cells/well in Costar low - volume white 384-well plate in assay buffer (1% FBS in HBSS), followed by adding the tracer (50 nM Example 21 or 100 nM 4a final concentration) and serial dilutions of test compounds. After 2 hours of incubation, Nanoluciferase substrates and extracellular inhibitors were added following the manufacturer's protocol (Promega, #N2520), and the NanoBRET signaling were quantified with the Paradigm (Molecular Devices).

cMAGL = target: T3, cMAGL (Macaca fascicularis, UniProt A0A2K5V664); experiment: Native MS (RapidFire) 2-AG substrate assay, purified cynomolgus monkey MAGL; assay type: biochemical; settings: SI Table 1; read-out: IC50 against purified MAGL ± SEM, Cynomolgus
T3 sequence (A0A2K5V664 11-297): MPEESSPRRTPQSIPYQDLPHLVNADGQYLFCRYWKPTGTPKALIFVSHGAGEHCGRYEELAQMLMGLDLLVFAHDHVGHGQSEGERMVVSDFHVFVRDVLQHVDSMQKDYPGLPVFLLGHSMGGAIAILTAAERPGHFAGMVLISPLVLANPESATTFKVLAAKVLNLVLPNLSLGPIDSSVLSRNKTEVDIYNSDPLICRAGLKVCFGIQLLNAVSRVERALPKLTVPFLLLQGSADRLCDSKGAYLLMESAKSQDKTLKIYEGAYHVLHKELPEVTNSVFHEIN
Protocol: as §1, §2

rMAGL = target: T4, rMAGL (Rattus norvegicus, UniProt Q8R431); experiment: Native MS (RapidFire) 2-AG substrate assay, purified rat MAGL; assay type: biochemical; settings: SI Table 1; read-out: IC50 against purified MAGL ± SEM, Rat
T4 sequence (Q8R431 1-303): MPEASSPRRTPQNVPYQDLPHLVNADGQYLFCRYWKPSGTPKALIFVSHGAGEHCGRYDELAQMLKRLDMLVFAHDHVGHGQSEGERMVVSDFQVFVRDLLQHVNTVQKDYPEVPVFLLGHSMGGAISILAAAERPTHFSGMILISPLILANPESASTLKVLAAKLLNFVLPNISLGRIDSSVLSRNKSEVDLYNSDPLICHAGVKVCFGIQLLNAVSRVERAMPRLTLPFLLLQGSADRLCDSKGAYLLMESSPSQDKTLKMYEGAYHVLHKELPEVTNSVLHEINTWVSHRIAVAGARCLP
Protocol: as §1, §2

SMILES: O=C1CO[C@H]2CCN(C(=O)N3C[C@@H]4[C@@H](COC5=C6C=CC=[N+]6[B-](F)(F)n6cccc65)[C@@H]4C3)C[C@H]2N1 [Compound S3]
IC50 (mMAGL): 1040 nM | IC50 (MAGL): 500 nM | IC50 [1]: > 10000 nM

SMILES: O=C1CO[C@H]2CCN(C(=O)N3CCC4(CC3)CC(OC3=C5C=CC=[N+]5[B-](F)(F)n5cccc53)C4)C[C@H]2N1 [Compound S6]
IC50 (mMAGL): 170 nM | IC50 (MAGL): 45 nM | IC50 [1]: > 10000 nM

SMILES: O=C1CO[C@H]2CCN(C(=O)N3CCC(=CC4=C5C=CC=[N+]5[B-](F)(F)n5cccc54)CC3)C[C@H]2N1 [Compound S10]
IC50 (mMAGL): 3400 nM | IC50 (MAGL): 1680 nM | IC50 [1]: > 10000 nM

SMILES: O=C1CO[C@H]2CCN(C(=O)N3CC4(CC(=CC5=C6C=CC=[N+]6[B-](F)(F)n6cccc65)C4)C3)C[C@H]2N1 [Compound S13]
IC50 (mMAGL): 182 nM | IC50 (MAGL): 43.3 nM | IC50 [1]: > 10000 nM

SMILES: O=C1COc2ccc(C(=O)N3CC4(CC(CC5=C6C=CC=[N+]6[B-](F)(F)n6cccc65)C4)C3)cc2N1 [Compound S19]
IC50 (mMAGL): 18.6 nM | IC50 (MAGL): 7.5 nM | IC50 [1]: 299 nM

SMILES: Cc1ccc2oc(N3CCN(C(=O)N4CC5(CC(CC6=C7C=CC=[N+]7[B-](F)(F)n7cccc76)C5)C4)CC3)nc2n1 [Compound S20]
IC50 (mMAGL): 108 nM | IC50 (MAGL): 17.2 nM | IC50 [1]: > 10000 nM

The next molecules have a lower IC50 (mMAGL) than those just listed; values first:

IC50 (mMAGL): 7.06 ± 4.73 nM | IC50 (MAGL): 3.82 ± 1.91 nM | IC50 (cMAGL): 8.37 nM | IC50 [1]: 4630 ± 52 nM | IC50 (rMAGL): 21.6 nM
SMILES: O=C1CO[C@H]2CCN(C(=O)N3CC4(CCC(OC5=C6C=CC=[N+]6[B-](F)(F)n6cccc65)CC4)C3)C[C@H]2N1 [Compound S4]

IC50 (mMAGL): 13.6 nM | IC50 (MAGL): 3.99 nM | IC50 [1]: > 10000 nM
SMILES: O=C1NC2(CO1)CN(C(=O)N1CCC3(CC1)CC(OC1=C4C=CC=[N+]4[B-](F)(F)n4cccc41)C3)C2 [Compound S8]

IC50 (mMAGL): 12.4 nM | IC50 (MAGL): 2.35 nM | IC50 (cMAGL): 2.73 nM | IC50 [1]: 564 nM | IC50 (rMAGL): 10.9 nM
SMILES: O=C1CO[C@H]2CCN(C(=O)N3CC4(CCC(CC5=C6C=CC=[N+]6[B-](F)(F)n6cccc65)CC4)C3)C[C@H]2N1 [Compound S12]

IC50 (mMAGL): 12.4 nM | IC50 (MAGL): 12.6 nM | IC50 [1]: > 10000 nM
SMILES: O=C1NC2(CO1)CN(C(=O)N1CC3(CC(=CC4=C5C=CC=[N+]5[B-](F)(F)n5cccc54)C3)C1)C2 [Compound S14]

IC50 (mMAGL): 1.36 nM | IC50 (MAGL): 1.26 nM | IC50 (cMAGL): 3.27 nM | IC50 [1]: 5540 nM | IC50 (rMAGL): 4.46 nM
SMILES: O=C1NC2(CO1)CN(C(=O)N1CC3(CC(CC4=C5C=CC=[N+]5[B-](F)(F)n5cccc54)C3)C1)C2 [Compound S15]

IC50 (mMAGL): 0.81 nM | IC50 (MAGL): 0.67 nM | IC50 [1]: 574 nM
SMILES: O=C1NC2(CO1)CN(C(=O)N1CC3(CCC(=CC4=C5C=CC=[N+]5[B-](F)(F)n5cccc54)CC3)C1)C2 [Compound S16]

IC50 (mMAGL): 0.84 nM | IC50 (MAGL): 1.01 nM | IC50 [1]: 300 nM
SMILES: O=C1N[C@H](CCC(=O)N2CC3(CC(CC4=C5C=CC=[N+]5[B-](F)(F)n5cccc54)C3)C2)CO1 [Compound S17]

IC50 (mMAGL): 2.07 nM | IC50 (MAGL): 1.98 nM | IC50 [1]: 1940 nM
SMILES: NC(=O)[C@H]1CCN(C(=O)N2CC3(CC(CC4=C5C=CC=[N+]5[B-](F)(F)n5cccc54)C3)C2)C1 [Compound S18]

IC50 (mMAGL): 0.37 nM | IC50 (MAGL): 0.66 nM | IC50 [1]: 56 ± 6 nM
SMILES: O=C1CO[C@H]2CCN(C(=O)N3CC4(CC(CC5=C6C=CC(c7ccccc7)=[N+]6[B-](F)(F)n6cccc65)C4)C3)C[C@H]2N1 [Compound S22]
